In ChEMBL document CHEMBL1817541, “Synthesis and Evaluation of the α-D-/α-L-Rhamnosyl and Amicetosyl Digitoxigenin Oligomers as Anti-tumor Agents” (ACS Med Chem Lett, 2011):

Legend:
Assay type in all cases: functional
NCI-H460 [1] = test: Cytotoxicity against human NCI-H460 cell assessed as cell death at 10 nM after 12 hrs by Hoechst 33342/propidium iodide staining based fluorescence microscopy
NCI-H460 [2] = test: Cytotoxicity against human NCI-H460 cell assessed as cell death at 100 nM after 12 hrs by Hoechst 33342/propidium iodide staining based fluorescence microscopy
NCI-H460 [3] = test: Cytotoxicity against human NCI-H460 cell assessed as cell death at 1 uM after 12 hrs by Hoechst 33342/propidium iodide staining based fluorescence microscopy
NCI-H460 [4] = test: Cytotoxicity against human NCI-H460 cell assessed as cell death at 50 nM after 12 hrs by Hoechst 33342/propidium iodide staining based fluorescence microscopy
NCI-H460 [5] = test: Cytotoxicity against human NCI-H460 cells in serum free medium assessed as cell death at 10 uM after 12 hrs by Hoechst 33342/propidium iodide staining based fluorescence microscopy
NCI-H460 [6] = test: Cytotoxicity against human NCI-H460 cell assessed as cell death at 500 nM after 12 hrs by Hoechst 33342/propidium iodide staining based fluorescence microscopy
NCI-H460 [7] = test: Induction of apoptosis in human NCI-H460 cells in at 50 nM after 12 hrs by Hoechst 33342/propidium iodide staining based fluorescence microscopy
NCI-H460 [8] = test: Cytotoxicity against human NCI-H460 cell assessed as cell death at 100 uM after 12 hrs by Hoechst 33342/propidium iodide staining based fluorescence microscopy
NCI-H460 [9] = test: Cytotoxicity against human NCI-H460 cell assessed as cell death after 12 hrs by Hoechst 33342/propidium iodide staining based fluorescence microscopy; conditions: NCI-H460, 12 h

Row | Compound | Activity (NCI-H460 [1]) | Activity (NCI-H460 [2]) | Activity (NCI-H460 [3]) | Activity (NCI-H460 [4]) | Activity (NCI-H460 [5]) | Activity (NCI-H460 [6]) | Activity (NCI-H460 [7]) | Activity (NCI-H460 [8]) | IC50 (NCI-H460 [9])
1 | C[C@@H]1O[C@@H](O[C@H]2CC[C@@]3(C)[C@H](CC[C@@H]4[C@@H]3CC[C@]3(C)[C@@H](C5=CC(=O)OC5)CC[C@]43O)C2)[C@H](O)[C@H](O)[C@H]1O | 17.04% | 96.96% | 100% | 60.56% | 100% | 100% | 48.64% | 100% | 
2 | C[C@H]1O[C@H](O[C@H]2CC[C@@]3(C)[C@H](CC[C@@H]4[C@@H]3CC[C@]3(C)[C@@H](C5=CC(=O)OC5)CC[C@]43O)C2)CC[C@@H]1O[C@@H]1CC[C@H](O[C@@H]2CC[C@H](O)[C@@H](C)O2)[C@@H](C)O1 | 6.55% | 8.57% | 9.84% | 7.85% | 26.48% | 9.11% |  | 53.1% | 33.1 µM
3 | C[C@@H]1O[C@@H](O[C@@H]2[C@@H](O)[C@@H](O)[C@H](O[C@@H]3[C@@H](O)[C@@H](O)[C@H](O[C@H]4CC[C@@]5(C)[C@H](CC[C@@H]6[C@@H]5CC[C@]5(C)[C@@H](C7=CC(=O)OC7)CC[C@]65O)C4)O[C@H]3C)O[C@H]2C)[C@H](O)[C@H](O)[C@H]1O | 10.71% | 15.21% | 43.65% | 12.17% | 94.07% | 38.97% |  | 100% | 1.35 µM
4 | C[C@H]1O[C@H](O[C@H]2CC[C@@]3(C)[C@H](CC[C@@H]4[C@@H]3CC[C@]3(C)[C@@H](C5=CC(=O)OC5)CC[C@]43O)C2)CC[C@@H]1O[C@@H]1CC[C@H](O)[C@@H](C)O1 | 9.06% | 11.49% | 15.99% | 10.01% | 50.25% | 12.91% |  | 71.1% | 5.99 µM
5 | C[C@@H]1O[C@@H](O[C@@H]2CC[C@H](O[C@H]3CC[C@@]4(C)[C@H](CC[C@@H]5[C@@H]4CC[C@]4(C)[C@@H](C6=CC(=O)OC6)CC[C@]54O)C3)O[C@H]2C)CC[C@H]1O | 8.73% | 18.03% | 94.59% | 14.89% | 100% | 53.76% |  | 100% | 0.51 µM
6 | C[C@H]1O[C@H](O[C@H]2[C@H](O)[C@H](O)[C@@H](O[C@H]3CC[C@@]4(C)[C@H](CC[C@@H]5[C@@H]4CC[C@]4(C)[C@@H](C6=CC(=O)OC6)CC[C@]54O)C3)O[C@@H]2C)[C@@H](O)[C@@H](O)[C@@H]1O | 6.36% | 9.87% | 14.52% | 7.37% | 58.09% | 11.06% |  | 73.4% | 4.27 µM
7 | C[C@@H]1O[C@@H](O[C@@H]2CC[C@H](O[C@@H]3CC[C@H](O[C@H]4CC[C@@]5(C)[C@H](CC[C@@H]6[C@@H]5CC[C@]5(C)[C@@H](C7=CC(=O)OC7)CC[C@]65O)C4)O[C@H]3C)O[C@H]2C)CC[C@H]1O | 8.34% | 11.8% | 25.85% | 10.85% | 70.17% | 16.46% |  | 91.74% | 3.96 µM
8 | C[C@H]1O[C@H](O[C@H]2CC[C@@]3(C)[C@H](CC[C@@H]4[C@@H]3CC[C@]3(C)[C@@H](C5=CC(=O)OC5)CC[C@]43O)C2)[C@@H](O)[C@@H](O)[C@@H]1O | 7.85% | 12.28% | 71.67% | 12.14% | 95.72% | 35.05% | 45.71% | 100% | 0.706 µM
9 | C[C@@H]1O[C@@H](O[C@@H]2[C@@H](O)[C@@H](O)[C@H](O[C@H]3CC[C@@]4(C)[C@H](CC[C@@H]5[C@@H]4CC[C@]4(C)[C@@H](C6=CC(=O)OC6)CC[C@]54O)C3)O[C@H]2C)[C@H](O)[C@H](O)[C@H]1O | 12.68% | 20.51% | 92.06% | 16.8% | 100% | 62.95% |  | 100% | 0.365 µM
10 | C[C@H]1O[C@H](O[C@H]2[C@H](O)[C@H](O)[C@@H](O[C@H]3[C@H](O)[C@H](O)[C@@H](O[C@H]4CC[C@@]5(C)[C@H](CC[C@@H]6[C@@H]5CC[C@]5(C)[C@@H](C7=CC(=O)OC7)CC[C@]65O)C4)O[C@@H]3C)O[C@@H]2C)[C@@H](O)[C@@H](O)[C@@H]1O | 6.44% | 7.17% | 8.37% | 6.85% | 28.42% | 7.99% |  | 59.91% | 18 µM
